Experimental data taken from patent US11573241B2, “Total cellular iron as a marker of cancer stem cells and uses thereof” (Institut National de la Sante et de la Recherche Medicale …, priority 2016, dated 2023).

Key:
RhoNox-1 reduction assay = settings: in the presence of iron (II)
Protocol: RhoNox-1 reduction assay. Experiments were carried in 96-well plate dishes. Reagent stock solutions were freshly prepared using Milli-Q water. 50 μL of solutions of Sal (800 μM), DFO (800 μM) and FeSO4 (80 μM) were mixed prior to addition of 50 μL of RhoNox-1 (40 μM) and completed with the appropriate volume of water to reach a final volume of 200 μL per well. Measurements were performed 30 min after addition of RhoNox-1 to the mix and were recorded using the PARADIGM™ Microplate Detection Platform (ex. 492 nm; em. 580 nm).

primary breast cells = experiment: Toxicity against primary breast cells; assay type: cell-based
SW620 = experiment: Sensibility to AM5; assay type: cell-based; settings: SW620, Colon
Protocol: (§1) Cell viability assay. Cell viability assay was carried out by plating 1000 cells/well in 96-well plates. Cells were treated as indicated for 72 h. CellTiter-Blue® Reagent (G8081, Promega) was added after 72 h treatment and cells were incubated for 1 h before recording fluorescence intensities (Excitation, 560/20 nm; Emission, 590/10 nm) using a Perkin Elmer Wallac 1420 Victor2 Microplate Reader.

SW480 = experiment: Sensibility to AM5; assay type: cell-based; settings: SW480, Colon
Protocol: as §1

HMLER CD24^low cells = experiment: Fluorescence microscopy of ferritin subcellular localization; assay type: cell-based, human; settings: 6 h

Structure (SMILES)	effect on iron reactivity (fluorogenic reduction of RhoNox-1) (RhoNox-1 reduction assay)	toxicity against primary breast cells (primary breast cells)	Sensibility to AM5 (SW620)	Sensibility to AM5 (SW480)	subcellular localization of ferritin (HMLER CD24^low cells)
CC[C@@H](C(=O)[C@@H](C)[C@@H](O)[C@H](C)[C@@H]1O[C@@H]([C@@H](CC)C(=O)O)CC[C@@H]1C)[C@H]1O[C@]2(C=C[C@@H](O)[C@]3(CC[C@@](C)([C@H]4CC[C@](O)(CC)[C@H](C)O4)O3)O2)[C@H](C)C[C@@H]1C [Sal, salinomycin, reference compound]	without altering its reactivity	–	–	–	–
C#CCN[C@@H]1C=C[C@]2(O[C@H]([C@@H](CC)C(=O)[C@@H](C)[C@@H](O)[C@H](C)C3O[C@@H](C(CC)C(=O)O)CC[C@@H]3C)[C@@H](C)C[C@H]2C)O[C@@]12CC[C@@](C)([C@H]1CC[C@](O)(CC)[C@H](C)O1)O2 (some centres unmarked) [AM5, Sal-Propargylamine]	–	little toxicity	Third	Third	re-localization of ferritin to the lysosomal compartment
